The target of data set [1] is T1, human A2A adenosine receptors (Homo sapiens, UniProt P29274).
T1 construct: expressed in transfected cells; host or cells: CHO cells
Kind of data set: Displacement of [^3H]CGS21680 binding, human A2A adenosine receptors in CHO cells (agonist radioligand). As to conditions: human A2A, CHO cells, [^3H]CGS21680; read-out: Ki(A2A). Displacement of [^3H]CGS21680 binding to human A2A adenosine receptors exp. in CHO cells.

The next data set has as its target T2, human A1 receptors (Homo sapiens, UniProt P30542).
T2 construct: expressed in transfected cells; host or cells: CHO cells
T2 sequence (P30542 1-326): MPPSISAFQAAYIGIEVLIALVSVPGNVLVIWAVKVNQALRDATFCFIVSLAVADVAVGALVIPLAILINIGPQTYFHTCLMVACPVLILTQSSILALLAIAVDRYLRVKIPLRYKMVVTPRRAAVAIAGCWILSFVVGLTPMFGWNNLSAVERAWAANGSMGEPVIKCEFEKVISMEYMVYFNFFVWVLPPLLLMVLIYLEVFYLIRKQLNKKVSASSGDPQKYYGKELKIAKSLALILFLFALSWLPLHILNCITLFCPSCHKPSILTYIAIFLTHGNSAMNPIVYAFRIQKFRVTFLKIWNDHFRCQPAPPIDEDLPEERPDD
The experiment in a line: [^3H] DPCPX binding to human A1 receptors expressed in CHO cells (antagonist radioligand). The settings on record: human A1, CHO cells, antagonist radioligand; read-out: [^3H] DPCPX binding to human A1 receptors expressed in CHO cells Ki. The protocol: Binding assay methodology for the human data with antagonist radioligands. […] Arch. […] The cells were grown adherently and maintained in Dulbecco's Modified Eagles Medium with nutrient mixture F12 (DMEM/F12) without nucleosides, containing 10% fetal calf serum, penicillin (100 U/ml), streptomycin (100 μg/ml), L-glutamine (2 mM) and Geneticin (G418, 0.2 mg/ml) at 37° C. in 5% CO2/95% air. Cells were split 2 or 3 times weekly at a ratio between 1:5 and 1:20. For membrane preparation the culture medium was removed and the cells were washed with PBS and scraped off T75 flasks in ice-cold hypotonic buffer (5 mM Tris HCl, 2 mM EDTA, pH 7.4). The cell suspension was homogenized with Polytron and the homogenate was spun for 10 min at 1,000×g. The supernatant was then centrifuged for 30 min at 100,000×g. The membrane pellet was resuspended in 50 mM Tris HCl buffer pH 7.4 (for A3 adenosine receptors: 50 mM Tris HCl, 10 mM MgCl2, 1 mM EDTA) and incubated with 3 UI/ml of Adenosine deaminase for 30 min at 37° C. Then the suspension was frozen at −80° C. HEK 293 cells transfected with the human recombinant A2B adenosine receptor were obtained from Receptor Biology, Inc. (Beltsville, Md., USA).
Displacement experiments were performed for 120 min at 25° C. in 0.2 ml of 50 mM Tris HCl buffer pH 7.4 containing 1 nM [3H]-DPCPX, diluted membranes (50 μg of protein/assay) and at least 6-8 different concentrations of antagonists studied. Non-specific binding was determined in the presence of 10 μM of CHA and this was always ≦10% of the total binding.

The target in another data set is T3, human A2A receptors (Homo sapiens, UniProt P29274).
T3 construct: expressed in transfected cells; host or cells: CHO cells
T3 sequence (P29274 whole entry): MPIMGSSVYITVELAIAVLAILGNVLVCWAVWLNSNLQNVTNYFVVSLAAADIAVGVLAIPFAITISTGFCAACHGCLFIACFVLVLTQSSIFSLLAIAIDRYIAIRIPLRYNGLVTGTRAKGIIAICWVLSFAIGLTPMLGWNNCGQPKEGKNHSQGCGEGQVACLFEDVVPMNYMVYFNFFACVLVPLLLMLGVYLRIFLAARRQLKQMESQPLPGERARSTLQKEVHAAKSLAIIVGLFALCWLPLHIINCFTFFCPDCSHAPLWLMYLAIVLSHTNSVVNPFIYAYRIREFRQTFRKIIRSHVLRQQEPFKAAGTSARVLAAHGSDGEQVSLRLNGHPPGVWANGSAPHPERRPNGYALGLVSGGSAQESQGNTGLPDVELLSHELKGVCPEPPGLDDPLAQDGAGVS
The experiment in a line: [^3H] SCH58261 binding to human A2A receptors expressed in CHO cells (antagonist radioligand). The settings on record: human A2A, CHO cells, antagonist radioligand; read-out: [^3H] SCH58261 binding to human A2A receptors expressed in CHO cells Ki. The protocol:
(§1) Binding assay methodology for the human data with antagonist radioligands. […] Arch. Pharmacol. 357: 1-9, (1998). The cells were grown adherently and maintained in Dulbecco's Modified Eagles Medium with nutrient mixture F12 (DMEM/F12) without nucleosides, containing 10% fetal calf serum, penicillin (100 U/ml), streptomycin (100 μg/ml), L-glutamine (2 mM) and Geneticin (G418, 0.2 mg/ml) at 37° C. in 5% CO2/95% air. Cells were split 2 or 3 times weekly at a ratio between 1:5 and 1:20. For membrane preparation the culture medium was removed and the cells were washed with PBS and scraped off T75 flasks in ice-cold hypotonic buffer (5 mM Tris HCl, 2 mM EDTA, pH 7.4). The cell suspension was homogenized with Polytron and the homogenate was spun for 10 min at 1,000×g. The supernatant was then centrifuged for 30 min at 100,000×g. The membrane pellet was resuspended in 50 mM Tris HCl buffer pH 7.4 (for A3 adenosine receptors: 50 mM Tris HCl, 10 mM MgCl2, 1 mM EDTA) and incubated with 3 UI/ml of Adenosine deaminase for 30 min at 37° C. Then the suspension was frozen at −80° C. HEK 293 cells transfected with the human recombinant A2B adenosine receptor were obtained from Receptor Biology, Inc. (Beltsville, Md., USA).
Binding of [^3H]-SCH 58261 to CHO cells transfected with the human recombinant A2A adenosine receptors (50 μg of protein/assay) was performed using 0.2 ml 50 mM Tris HCl buffer, 10 mM MgCl2 pH 7.4 and at least 6-8 different concentrations of antagonists studied for an incubation time of 30 min at 25° C.

In a further data set the target is T4, human hA2B receptors (Homo sapiens, UniProt P29275).
T4 construct: host or cells: HEK 293 cells
T4 sequence (P29275 1-332): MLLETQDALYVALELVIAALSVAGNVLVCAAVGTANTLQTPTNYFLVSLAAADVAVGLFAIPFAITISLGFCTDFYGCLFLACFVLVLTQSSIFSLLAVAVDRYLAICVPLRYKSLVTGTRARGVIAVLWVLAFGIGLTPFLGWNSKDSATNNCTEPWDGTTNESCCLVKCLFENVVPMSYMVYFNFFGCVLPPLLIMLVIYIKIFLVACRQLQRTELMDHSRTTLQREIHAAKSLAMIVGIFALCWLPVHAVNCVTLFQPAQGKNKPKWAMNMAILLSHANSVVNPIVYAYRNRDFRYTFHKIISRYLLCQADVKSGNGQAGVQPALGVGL
Kind of data set: [^3H] DPCPX binding to human hA2B receptors expressed in HEK293 cells (antagonist radioligand). As to conditions: human A2B, HEK293 cells, antagonist radioligand; read-out: [^3H] DPCPX binding to human hA2B receptors expressed in HEK293 cells Ki. As to the method: as §1
Competition experiments of [^3H]-DPCPX to HEK-293 cells transfected with the human recombinant A^2B adenosine receptor were performed for 60 min at 25° C. in 0.1 ml of 50 mM Tris HCl buffer, 10 mM MgCl2, 1 mM EDTA, 0.1 mM benzamidine pH 7.4, 2 IU/ml adenosine deaminase containing 34 nM [^3H]-DPCPX, diluted membranes (20 μg of protein/assay) and at least 6-8 different concentrations of selected compounds.

Another data set deals with T5, human A3 receptors (Homo sapiens, UniProt P0DMS8).
T5 construct: expressed in transfected cells; host or cells: CHO cells
T5 sequence (P0DMS8 1-318): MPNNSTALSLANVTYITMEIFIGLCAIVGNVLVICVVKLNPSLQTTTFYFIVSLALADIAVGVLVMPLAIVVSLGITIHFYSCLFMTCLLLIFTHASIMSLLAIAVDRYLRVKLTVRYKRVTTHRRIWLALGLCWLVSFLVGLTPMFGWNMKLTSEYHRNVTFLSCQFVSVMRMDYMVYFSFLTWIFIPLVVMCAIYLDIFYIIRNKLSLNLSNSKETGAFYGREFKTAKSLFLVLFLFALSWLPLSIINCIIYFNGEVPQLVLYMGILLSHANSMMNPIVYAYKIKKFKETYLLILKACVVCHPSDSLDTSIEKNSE
The experiment in a line: [^3H] MRE3008F20 binding to human A3 receptors expressed in CHO cells (antagonist radioligand). The settings on record: human A3, CHO cells, antagonist radioligand; read-out: [^3H] MRE3008F20 binding to human A3 receptors expressed in CHO cells Ki. The protocol:
as §1
Binding of [^3H]-MRE 3008F20 to CHO cells transfected with the human recombinant A3 adenosine receptors was performed according to Varani et al., 2000. Competition experiments were carried out in duplicate in a final volume of […] in test tubes containing 1 nM [^3H]-MRE 3008F20, 50 mM Tris HCl buffer, 10 mM MgCl2, 1 mM EDTA pH 7.4 and 100 μl of diluted membranes (50 μg of protein/assay) and at least 8-10 different concentrations of examined antagonists. Incubation time was 120 min at 4° C., according to the results of previous time-course experiments.

For data set [2], the target named is T6, human A1 adenosine receptors (Homo sapiens, UniProt P30542).
T6 sequence (P30542 1-326): T2 sequence (P30542 1-326)
The experiment in a line: Displacement of [^3H]CHA binding, human A1 adenosine receptors in CHO cells (agonist radioligand).

Data set [3] concerns the target T7, human A3 adenosine receptors (Homo sapiens, UniProt P0DMS8).
T7 sequence (P0DMS8 1-318): T5 sequence (P0DMS8 1-318)

Another data set relates to A3 receptor. The settings on record: cited from earlier work.

T1 sequence (P29274 whole entry): as the sequence (P29274 whole entry) above

Take `CCNC(=O)[C@H]1O[C@@H](n2cnc3c(NC(=O)Nc4ccc(S(=O)(=O)NC(C)(C)C)cc4)ncnc32)[C@H](O)[C@@H]1O` [Compound 92, 1-Deoxy-1-[6-[[[[4-[N-(1,1-dimethylethyl)aminosulfonyl]phenyl]amino]-carbonyl]amino]-9H-purin-9-yl]-N-ethyl-β-D-ribofuranuronamide]: the melting point (usually the temperature, or range, at which the solid turns liquid) is 185 °C. Moreover, the Ki (commonly the equilibrium dissociation constant of an inhibitor or competing ligand from its target) in data set [1] was more than 1000 nM. Moreover, the inhibition constant (Ki) on human A1 receptors was more than 1000 nM. Also, the inhibitory constant (Ki) at human A2A receptors was more than 1000 nM. For the same molecule, the Ki at human hA2B receptors is more than 1000 nM. Also, the Ki at human A3 receptors is 330 nM. In data set [2], this molecule had a Ki of 250 nM. Further, in [3], affinity was put at a Ki of 20 nM. In data set [3] (ratio Ki(A1)/Ki(A3), agonist radioligands), the A1/A3 was 12.5.

Take `CNC(=O)[C@H]1O[C@@H](n2cnc3c(NCc4cccc(I)c4)ncnc32)[C@H](O)[C@@H]1O` [IB-MECA, N^6-(3-iodo-benzyl)-adenosine-5′-N-methyl-uronamide]: the “selective for the A3 receptor versus either the A1 or A2A receptors” value with A3 receptor is 50 fold.

The values are drawn from patent publication US7511133B2, “Adenosine A3 receptor agonists” (King Pharmaceuticals Research and Development, Inc., priority 2003, dated 2009).
